Measured values taken from ChEMBL document CHEMBL1139156, “Novel naphthyridines are histamine H3 antagonists and serotonin reuptake transporter inhibitors” (Bioorg Med Chem Lett, 2007).

Legend:
Histamine H3 receptor [1] = biological target: T1, Histamine H3 receptor (Homo sapiens, UniProt Q9Y5N1); assay: Antagonist activity at human histamine H3 receptor expressed in SK-N-MC cells assessed as effect on cAMP accumulation; format: functional, cell-based; settings: read-out: pA2 (converted)
[2] = biological target: Sodium-dependent serotonin transporter (Rattus norvegicus, UniProt P31652); assay: Binding affinity to rat SERT
Chain of Sodium-dependent serotonin transporter (Rattus norvegicus, UniProt P31652) (P31652 whole entry): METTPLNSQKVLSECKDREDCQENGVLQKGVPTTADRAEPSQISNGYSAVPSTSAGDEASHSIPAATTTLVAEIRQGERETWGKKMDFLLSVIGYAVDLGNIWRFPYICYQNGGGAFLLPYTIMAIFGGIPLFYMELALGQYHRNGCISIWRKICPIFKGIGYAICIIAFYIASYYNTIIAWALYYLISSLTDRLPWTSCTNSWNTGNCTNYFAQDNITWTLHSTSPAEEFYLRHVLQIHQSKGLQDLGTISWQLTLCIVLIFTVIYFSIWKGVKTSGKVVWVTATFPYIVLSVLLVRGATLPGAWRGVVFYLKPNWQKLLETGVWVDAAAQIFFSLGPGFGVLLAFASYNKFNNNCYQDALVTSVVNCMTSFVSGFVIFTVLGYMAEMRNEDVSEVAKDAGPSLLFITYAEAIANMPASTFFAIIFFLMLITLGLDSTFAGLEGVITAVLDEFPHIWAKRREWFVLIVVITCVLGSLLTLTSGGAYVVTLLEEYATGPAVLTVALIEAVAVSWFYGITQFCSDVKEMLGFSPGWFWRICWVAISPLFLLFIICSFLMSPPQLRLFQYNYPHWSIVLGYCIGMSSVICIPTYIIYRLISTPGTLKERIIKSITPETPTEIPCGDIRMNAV

[3] = biological target: Sodium-dependent serotonin transporter (Homo sapiens, UniProt P31645); assay: Binding affinity to human SERT
Chain of Sodium-dependent serotonin transporter (Homo sapiens, UniProt P31645) (P31645 whole entry): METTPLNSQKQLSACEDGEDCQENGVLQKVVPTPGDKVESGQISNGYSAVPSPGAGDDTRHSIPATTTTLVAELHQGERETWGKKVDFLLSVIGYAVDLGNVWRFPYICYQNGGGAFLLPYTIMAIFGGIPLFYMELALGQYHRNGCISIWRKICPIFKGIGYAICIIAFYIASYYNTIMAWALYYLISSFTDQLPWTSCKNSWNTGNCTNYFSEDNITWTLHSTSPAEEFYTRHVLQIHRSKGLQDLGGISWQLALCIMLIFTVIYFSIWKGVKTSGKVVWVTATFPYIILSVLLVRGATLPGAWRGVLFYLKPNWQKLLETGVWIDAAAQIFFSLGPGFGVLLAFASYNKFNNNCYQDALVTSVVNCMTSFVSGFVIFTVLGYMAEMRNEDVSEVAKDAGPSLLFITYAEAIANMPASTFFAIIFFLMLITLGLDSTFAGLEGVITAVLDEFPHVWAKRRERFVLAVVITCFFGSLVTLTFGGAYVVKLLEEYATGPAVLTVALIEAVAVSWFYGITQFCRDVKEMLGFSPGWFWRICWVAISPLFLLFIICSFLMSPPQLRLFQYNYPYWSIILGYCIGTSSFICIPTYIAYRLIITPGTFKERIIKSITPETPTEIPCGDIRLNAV

Histamine H3 receptor [4] = biological target: T1, Histamine H3 receptor; assay: Displacement of N-[3H]alpha-methylhistamine from human histamine H3 receptor expressed in SK-N-MC cells; format: cell-based
[5] = Cmax in rat plasma at 10 mg/kg, po after 1 hr; format: ADME, organism-based; parameters: dose 10 mg/kg, route oral
[6] = Cmax in rat brain at 10 mg/kg, po after 6 hrs; format: ADME, organism-based; parameters: dose 10 mg/kg, route oral
[7] = Drug level in rat brain at 10 mg/kg, po after 24 hrs; format: ADME, organism-based; parameters: dose 10 mg/kg, route oral; settings: read-out: Drug uptake

T1 sequence (Q9Y5N1 whole entry): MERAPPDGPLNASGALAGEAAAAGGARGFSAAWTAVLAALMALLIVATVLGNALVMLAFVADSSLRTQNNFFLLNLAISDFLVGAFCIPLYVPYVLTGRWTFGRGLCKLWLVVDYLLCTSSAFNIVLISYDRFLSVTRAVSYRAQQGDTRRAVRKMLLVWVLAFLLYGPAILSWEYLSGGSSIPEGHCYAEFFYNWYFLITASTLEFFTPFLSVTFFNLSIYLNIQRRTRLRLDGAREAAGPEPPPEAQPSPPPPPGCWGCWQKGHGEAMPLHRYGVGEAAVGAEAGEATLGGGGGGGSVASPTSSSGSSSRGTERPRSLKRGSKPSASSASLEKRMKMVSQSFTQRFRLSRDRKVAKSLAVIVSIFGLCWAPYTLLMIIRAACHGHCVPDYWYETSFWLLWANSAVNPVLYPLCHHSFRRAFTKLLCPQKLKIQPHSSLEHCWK

Kb (Histamine H3 receptor [1]) [nM] | Compound | other results
25.7 | COc1cccc(C2CN(C)Cc3cc(OCCCN4CCCCC4)ncc32)c1 (centres undefined) | –
5.89 | COc1ccc(C2CNCc3cc(OCCCN4CCCCC4)ncc32)cc1 (centres undefined) | Ki [2]: 46 nM
3.55 | CN1Cc2cc(OCCCN3CCCCC3)ncc2C(c2ccc(F)cc2)C1 (centres undefined) | –
3.89 | Clc1ccc(C2CNCc3cc(OCCCN4CCCCC4)ncc32)cc1 (centres undefined) | –
21.4 | CN1Cc2cc(OCCCN3CCCCC3)ncc2C(c2ccccc2)C1 (centres undefined) | –
0.724 | c1ccc(C2CNCc3cc(OCCCN4CCCCC4)ncc32)cc1 (centres undefined) | –
1.05 | CN1Cc2cc(OCCCN3CCCCC3)ncc2C(c2ccccc2F)C1 (centres undefined) | –
1.05 | Clc1ccccc1C1CNCc2cc(OCCCN3CCCCC3)ncc21 (centres undefined) | –
16.6 | CN1Cc2cc(OCCCN3CCCCC3)ncc2C(c2ccc(Cl)c(F)c2)C1 (centres undefined) | Ki [2]: 26 nM; Ki [3]: 147 nM; Ki (Histamine H3 receptor [4]): 7 nM
14.1 | CCN(CC)CCCOc1cc2c(cn1)C(c1ccc(Cl)c(Cl)c1)CNC2 (centres undefined) | –
0.661 | CCN(CC)CCCOc1cc2c(cn1)C(c1ccccc1)CN(C)C2 (centres undefined) | –
11.7 | COc1ccc(C2CN(C)Cc3cc(OCCCN4CCOCC4)ncc32)cc1 (centres undefined) | –
– | CC(C)N1CCC(COc2cc3c(cn2)C(c2ccc(Cl)c(Cl)c2)CNC3)CC1 (centres undefined) | Ki [2]: 18 nM; Ki [3]: 37 nM; Ki (Histamine H3 receptor [4]): 13 nM
3.55 | COc1ccc(C2CNCc3cc(OCC4CCN(C(C)C)CC4)ncc32)cc1 (centres undefined) | –
18.2 | CN1Cc2cc(OCCCN3CCCCC3)ncc2C(c2ccc(Cl)c(Cl)c2)C1 (centres undefined) | –
– | c1ccc(C2CNCc3cc(OCCCN4CCOCC4)ncc32)cc1 (centres undefined) | Ki [3]: 4770 nM; Ki (Histamine H3 receptor [4]): 13 nM; Cmax [5]: 220 nM; Cmax [6]: 5560 nM; concentration at 24 h [7]: > 600 nM
9.77 | CN1Cc2cc(OCCCN3CCCCC3)ncc2C(c2cccc(Cl)c2)C1 (centres undefined) | –
11.2 | Clc1ccc(C2CNCc3cc(OCCCN4CCCCC4)ncc32)cc1Cl (centres undefined) | Ki [3]: 32 nM
